Source: article PMC12376241 (2025)
Blank lines part the entries; values can stand above or below the compound they belong to.

What was measured:
[1] = tested on: I5 (RNA, aptamer) GGGAGAGGAGGGAGAUAGAUAUCAAACGAACGGCAUGAGGCUCGAUCUACGUUACCCCUCUGACGUUGGCAUUUGUGUUUCGUGGAUGCCACAGGAC; assay: fluorescence polarization, displacement of Cy3-ODN; details: 3 mM Mg2+, PBS, apparent, 0.005% Tween 20, 21 °C, 9-nt Cy3-ODN displaced, inhibitor vs response fit
[2] = tested on: LR1 (RNA, aptamer) GGGAGAGGAGGGAGAUAGAUAUCAAACUAAACACUUGAGGCUCGAUCUUUAUUGUAUUUACACCAUCUUGUGCAUCAUUUCGUGGAUGCCACAGGAC; assay: ITC; details: 3 mM Mg2+, PBS, 1 mM ligand into 20 μM RNA, ligand-into-buffer heat subtracted
[3] = tested on: P7 (RNA, aptamer) GGGAGAGGAGGGAGAUAGAUAUCAACAGGAACGGUUGAGGCUCGAUCAGAUACCCCUCGCUACAAUGCGGCAUUGGGUUUCGUGGAUGCCACAGGAC; assay: fluorescence polarization, displacement of Cy3-ODN; details: 3 mM Mg2+, PBS, 0.005% Tween 20, 21 °C, 9-nt Cy3-ODN, 500 nM RNA, 0.1-1 mM compound
[4] = tested on: LR1 (RNA, aptamer) GGGAGAGGAGGGAGAUAGAUAUCAAACUAAACACUUGAGGCUCGAUCUUUAUUGUAUUUACACCAUCUUGUGCAUCAUUUCGUGGAUGCCACAGGAC; assay: fluorescence polarization, displacement of Cy3-ODN; details: 3 mM Mg2+, PBS, 0.005% Tween 20, 21 °C; for binding: 100 nM Cy3-ODN, 500 nM RNA, tested at 100 μM
[5] = tested on: T1 (RNA, aptamer) GGGAGAGGAGGGAGAUAGAUAUCAACUAUCGCUUGUGAGGCUCGAUCUUUAUGUGCCCCUCCUUCAGGUUUGGCGUCUUUCGUGGAUGCCACAGGAC; assay: ITC; details: 1 mM ligand into 50 μM RNA
[6] = tested on: T1 (RNA, aptamer) GGGAGAGGAGGGAGAUAGAUAUCAACUAUCGCUUGUGAGGCUCGAUCUUUAUGUGCCCCUCCUUCAGGUUUGGCGUCUUUCGUGGAUGCCACAGGAC; assay: fluorescence polarization, displacement of Cy3-ODN; details: 3 mM Mg2+, PBS, 0.005% Tween 20, 21 °C
[7] = tested on: R3 (RNA, aptamer) GGGAGAGGAGGGAGAUAGAUAUCAAGUCGGAGGUAUGAGGCUCGAUCACGAAGAAGGCCGAUUGGGUUACCCUCCUUUUUCGUGGAUGCCACAGGAC; assay: ITC; details: 300 μM ligand into 20 μM RNA
[8] = tested on: R3 (RNA, aptamer) GGGAGAGGAGGGAGAUAGAUAUCAAGUCGGAGGUAUGAGGCUCGAUCACGAAGAAGGCCGAUUGGGUUACCCUCCUUUUUCGUGGAUGCCACAGGAC; assay: fluorescence polarization, displacement of Cy3-ODN; details: 3 mM Mg2+, PBS, apparent, 0.005% Tween 20, 21 °C, 9-nt Cy3-ODN displaced, inhibitor vs response fit
[9] = tested on: R2 (RNA, aptamer) GGGAGAGGAGGGAGAUAGAUAUCAAGAGGUACGUAUGAGGCUCGAUCGGAAGGCUGGUCUAGGUCCCGUCCUGACCGUUUCGUGGAUGCCACAGGAC; assay: fluorescence polarization, displacement of Cy3-ODN; details: 3 mM Mg2+, PBS, 0.005% Tween 20, 21 °C, 9-nt Cy3-ODN, 500 nM RNA, 0.1-1 mM compound
[10] = tested on: LM1 (RNA, aptamer) GGGAGAGGAGGGAGAUAGAUAUCAACACUUGAACGUGAGGCUCGAUCUUUUUAGCUUUUUACUGCGGCGUUAACGGUUUUCGUGGAUGCCACAGGAC; assay: ITC; details: 3 mM Mg2+, PBS, 1 mM ligand into 20 μM RNA, ligand-into-buffer heat subtracted
[11] = tested on: LM1 (RNA, aptamer) GGGAGAGGAGGGAGAUAGAUAUCAACACUUGAACGUGAGGCUCGAUCUUUUUAGCUUUUUACUGCGGCGUUAACGGUUUUCGUGGAUGCCACAGGAC; assay: fluorescence polarization, displacement of Cy3-ODN; details: 3 mM Mg2+, PBS, apparent, 0.005% Tween 20, 21 °C, shortened Cy3-labelled capture ODN displaced, inhibitor vs response fit
[12] = tested on: LR2 (RNA, aptamer) GGGAGAGGAGGGAGAUAGAUAUCAAUUACCACGCUUGAGGCUCGAUCUUUUGCUUUGUCCAUCUAGUGUUGUCUGCGUUUCGUGGAUGCCACAGGAC; assay: fluorescence polarization, displacement of Cy3-ODN; details: 3 mM Mg2+, PBS, 0.005% Tween 20, 21 °C, 100 nM Cy3-ODN, 500 nM RNA, 100 μM compound
[13] = tested on: HDB1 (RNA, aptamer) GGGAGAGGAGGGAGAUAGAUAUCAAACCCCAUCUUGAGGCUCGAUCGGCUCGUUUUUCAGGGAUAAGUAGAUUUAGUUUUUCGUGGAUGCCACAGGAC; assay: fluorescence polarization, displacement of Cy3-ODN; details: 3 mM Mg2+, PBS, apparent, 0.005% Tween 20, 21 °C, shortened Cy3-labelled capture ODN displaced, inhibitor vs response fit
[14] = tested on: HDB2 (RNA, aptamer) GGGAGAGGAGGGAGAUAGAUAUCAAACCGGCACCUGAGGCUCGAUCUUUGUUUGCAAAGGGCAUUGCAUCGAUGUGUUUUUCGUGGAUGCCACAGGAC; assay: ITC; details: 3 mM Mg2+, PBS, 1 mM ligand into 20 μM RNA, ligand-into-buffer heat subtracted, legend also prints HDB1
[15] = tested on: LM2 (RNA, aptamer) GGGAGAGGAGGGAGAUAGAUAUCAAACUAACAGUCUGAGGCUCGAUCUUUUGCAGAAACUUUCGUCUUUUGGCUAUCUUUCGUGGAUGCCACAGGAC; assay: fluorescence polarization, displacement of Cy3-ODN; details: 3 mM Mg2+, PBS, 0.005% Tween 20, 21 °C, 100 nM Cy3-ODN, 500 nM RNA, 100 μM compound

Compound: O=P(O)(O)O[C@H]1[C@@H](OP(=O)(O)O)[C@H](OP(=O)(O)O)[C@@H](OP(=O)(O)OP(=O)(O)O)[C@H](OP(=O)(O)O)[C@H]1OP(=O)(O)O
Kd [1]: ~ 76 μM

Compound: Nc1nc2c(ncn2[C@@H]2O[C@H](COP(=O)(O)OP(=O)(O)O)[C@@H](OP(=O)(O)OP(=O)(O)O)[C@H]2O)c(=O)[nH]1
binding [3]: weak

Compound: N=C(N)NCCC[C@H](N)C(=O)O
binding [4]: no

Compound: CC1(C)S[C@@H]2[C@H](NC(=O)[C@H](N)c3ccccc3)C(=O)N2[C@H]1C(=O)O
binding [4]: no

Compound: Cn1c(=O)c2c(ncn2C)n(C)c1=O
binding ([5]; no interaction): no
binding ([6]; 9-nt Cy3-ODN tracer, no binding observed): no

Compound: Nc1ncnc2c1ncn2[C@@H]1O[C@@H]2COP(=O)(O)O[C@H]2[C@H]1O
binding [4]: no

Other lines, results leading:

Kd [2]: 130.0 ± 30.9 µM
Compound: NC[C@H]1O[C@H](O[C@H]2[C@H](O)[C@@H](O[C@H]3O[C@H](CO)[C@@H](O)[C@H](N)[C@H]3O)[C@H](N)C[C@@H]2N)[C@H](N)[C@@H](O)[C@@H]1O

binding [4]: no
Kd [5]: 70.3 ± 6.33 µM
Kd ([6]; apparent, 9-nt Cy3-ODN displaced, inhibitor vs response fit): ~ 54 μM
Compound: Cn1c(=O)c2[nH]cnc2n(C)c1=O

Kd [7]: 9.88 ± 1.09 µM
Kd [8]: ~ 5 μM
binding [9]: weak
Compound: Cc1cc2nc3c(=O)[nH]c(=O)nc-3n(C[C@H](O)[C@H](O)[C@H](O)CO)c2cc1C

Kd ([4]; apparent, shortened Cy3-labelled capture ODN displaced, inhibitor vs response fit): ~ 3 μM
Kd [2]: 34.7 ± 1.97 µM
Kd [10]: 38.0 ± 2.10 µM
Kd [11]: ~ 4 μM
binding [12]: yes
Kd [13]: ~ 10 μM
Kd [14]: 55.9 ± 3.57 µM
binding [15]: yes
Compound: NC[C@@H]1O[C@H](O[C@H]2[C@@H](O)[C@H](O[C@@H]3[C@@H](O)[C@H](N)C[C@H](N)[C@H]3O[C@H]3O[C@H](CN)[C@@H](O)[C@H](O)[C@H]3N)O[C@@H]2CO)[C@H](N)[C@@H](O)[C@@H]1O
